{
  "source": "patent US20200237937A1",
  "about": "“COMPOSITIONS AND METHODS FOR ASSESSING […] PATHOLOGY” (Navidea Biopharmaceuticals, Inc., priority 2019, published 2020)",
  "key": {"[1]": {"molecular_target": "T1, mannose receptor (CD206) (Homo sapiens, UniProt P22897)", "T1 sequence (P22897 19-1456)": "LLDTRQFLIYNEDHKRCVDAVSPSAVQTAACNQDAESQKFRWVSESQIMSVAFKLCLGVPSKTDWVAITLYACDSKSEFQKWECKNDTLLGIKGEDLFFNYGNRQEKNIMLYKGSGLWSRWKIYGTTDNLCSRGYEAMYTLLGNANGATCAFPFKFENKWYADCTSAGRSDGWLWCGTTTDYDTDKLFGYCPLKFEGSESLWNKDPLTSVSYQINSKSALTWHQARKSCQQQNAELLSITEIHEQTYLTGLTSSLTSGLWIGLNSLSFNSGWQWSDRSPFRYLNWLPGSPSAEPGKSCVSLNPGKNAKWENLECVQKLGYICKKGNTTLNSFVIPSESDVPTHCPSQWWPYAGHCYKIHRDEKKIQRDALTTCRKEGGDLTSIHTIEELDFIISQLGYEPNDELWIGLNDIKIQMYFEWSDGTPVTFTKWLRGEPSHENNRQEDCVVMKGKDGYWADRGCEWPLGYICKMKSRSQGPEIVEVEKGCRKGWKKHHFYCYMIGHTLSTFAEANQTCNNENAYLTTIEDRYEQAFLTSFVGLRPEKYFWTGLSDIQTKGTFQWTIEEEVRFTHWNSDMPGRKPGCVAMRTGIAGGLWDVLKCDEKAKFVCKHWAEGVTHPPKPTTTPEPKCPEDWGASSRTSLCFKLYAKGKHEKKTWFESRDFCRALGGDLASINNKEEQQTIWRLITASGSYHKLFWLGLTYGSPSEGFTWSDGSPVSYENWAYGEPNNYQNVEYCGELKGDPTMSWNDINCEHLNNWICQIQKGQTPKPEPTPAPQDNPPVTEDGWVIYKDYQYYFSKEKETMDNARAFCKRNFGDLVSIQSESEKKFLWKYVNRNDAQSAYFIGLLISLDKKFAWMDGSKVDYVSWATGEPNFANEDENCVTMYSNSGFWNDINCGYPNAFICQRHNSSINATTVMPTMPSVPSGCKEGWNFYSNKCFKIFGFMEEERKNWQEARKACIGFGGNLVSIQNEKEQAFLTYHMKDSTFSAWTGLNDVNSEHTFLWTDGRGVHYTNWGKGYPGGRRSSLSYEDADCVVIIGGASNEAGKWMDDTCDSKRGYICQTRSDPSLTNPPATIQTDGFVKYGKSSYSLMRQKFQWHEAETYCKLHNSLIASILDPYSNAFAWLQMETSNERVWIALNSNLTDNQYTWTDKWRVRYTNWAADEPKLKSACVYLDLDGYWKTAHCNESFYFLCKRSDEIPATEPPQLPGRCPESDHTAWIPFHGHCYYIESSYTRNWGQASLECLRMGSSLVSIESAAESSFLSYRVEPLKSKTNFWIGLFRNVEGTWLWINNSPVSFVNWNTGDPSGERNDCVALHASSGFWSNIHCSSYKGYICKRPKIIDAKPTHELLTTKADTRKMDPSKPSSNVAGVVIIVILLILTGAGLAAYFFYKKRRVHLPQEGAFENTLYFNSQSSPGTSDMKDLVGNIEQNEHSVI", "settings": "for Mean Joint Specific MARTAD: 5 healthy subjects, IV, 10 mCi 99mTc; for Cutoff Value (MARTAD 2 S.D. above the joint specific mean): from 5 healthy subjects", "procedure": "In certain aspects, the pixel intensities of the ROI and RR are used to derive normalized region-specific mannose receptor targeted localization determination (MARTAD) value. The MARTAD value is quantitative index of the amount of imaging agent localization that can be attributable to disease activity in planar images. Defined broadly, the MARTAD value is determined by assessing the ratio of average pixel intensity of the ROI to the average pixel intensity of the RR. In certain alternative embodiments, the MARTAD value is determined by assessing the ratio of maximum pixel intensity of the ROI to the maximum pixel intensity of the RR.\nFollowing MARTAD value determination for a joint or plurality of joints, the MARTAD value can be used to determine macrophage involvement by comparing the MARTAD of the first joint to a normal MARTAD value for a corresponding joint (e.g., RtPIP2 RA vs RtPIP2 healthy). In certain implementations, the normal MARTAD value is determined by aggregating the MARTAD values for each joint from a pool of healthy subjects (e.g., not suffering from RA). In exemplary implementations, the method for defining the joint specific RR in the pool of healthy subjects will be the same as that used for the patient population. Macrophage involvement in a subject is indicated by a joint specific MARTAD value that exceeds the normal MARTAD value by a predetermined threshold. […] In certain alternative implementations, the predetermined threshold subject joint MARTAD value greater above the 95% confidence interval of the average MARTAD value corresponding joint from the plurality of healthy subjects.\n(§1) The mass dose of tilmanocept injected into the subjects varied from 125 μg to 400 μg. […] The images shown in FIGS. 1 and 2 were acquired using a Siemens Symbia Intevo camera. Image acquisition times varied between studies from 5-10 minutes.\nCutoff values for determination of macrophage involvement in RA inflammation set at MARTAD values greater than 2 S.D. above the joint specific mean."}, "[2]": {"molecular_target": "T1, mannose receptor (CD206)", "procedure": "as §1"}},
  "note": "Read-outs that look alike come from different tables or passages of the source.",
  "data": [
    {"substance": "dextran 3-[(2-aminoethyl)thio]propyl 17-carboxy-10,13,16-tris(carboxymethyl)-8-oxo-4-thia-7,10,13,16-tetraazaheptadec-1-yl 3-[[2-[[1-imino-2-(D-mannopyranosylthio)ethyl]amino]ethyl]thio]propyl ether complexes [Tc99m-tilmanocept]", "values": [
      {"measurement": "Mean Joint Specific MARTAD", "setting": "[1]; MCP1", "result": 0.87},
      {"measurement": "Cutoff Value (MARTAD 2 S.D. above the joint specific mean)", "setting": "[1]; MCP1", "result": 0.99},
      {"measurement": "Mean Joint Specific MARTAD", "setting": "[1]; MCP2", "result": 0.86},
      {"measurement": "Cutoff Value (MARTAD 2 S.D. above the joint specific mean)", "setting": "[1]; MCP2", "result": 1.13},
      {"measurement": "Mean Joint Specific MARTAD", "setting": "[1]; MCP3", "result": 0.79},
      {"measurement": "Cutoff Value (MARTAD 2 S.D. above the joint specific mean)", "setting": "[1]; MCP3", "result": 0.93},
      {"measurement": "Mean Joint Specific MARTAD", "setting": "[1]; MCP4", "result": 0.77},
      {"measurement": "Cutoff Value (MARTAD 2 S.D. above the joint specific mean)", "setting": "[1]; MCP4", "result": 1.00},
      {"measurement": "Mean Joint Specific MARTAD", "setting": "[1]; MCP5", "result": 0.76},
      {"measurement": "Cutoff Value (MARTAD 2 S.D. above the joint specific mean)", "setting": "[1]; MCP5", "result": 1.08},
      {"measurement": "Mean Joint Specific MARTAD", "setting": "[1]; PIP1", "result": 0.98},
      {"measurement": "Cutoff Value (MARTAD 2 S.D. above the joint specific mean)", "setting": "[1]; PIP1", "result": 1.21},
      {"measurement": "Mean Joint Specific MARTAD", "setting": "[1]; PIP2", "result": 1.05},
      {"measurement": "Cutoff Value (MARTAD 2 S.D. above the joint specific mean)", "setting": "[1]; PIP2", "result": 1.34},
      {"measurement": "Mean Joint Specific MARTAD", "setting": "[1]; PIP3", "result": 1.03},
      {"measurement": "Cutoff Value (MARTAD 2 S.D. above the joint specific mean)", "setting": "[1]; PIP3", "result": 1.39},
      {"measurement": "Mean Joint Specific MARTAD", "setting": "[1]; PIP4", "result": 0.93},
      {"measurement": "Cutoff Value (MARTAD 2 S.D. above the joint specific mean)", "setting": "[1]; PIP4", "result": 1.19},
      {"measurement": "Mean Joint Specific MARTAD", "setting": "[1]; PIP5", "result": 0.87},
      {"measurement": "Cutoff Value (MARTAD 2 S.D. above the joint specific mean)", "setting": "[1]; PIP5", "result": 1.14},
      {"measurement": "Mean Joint Specific MARTAD", "setting": "[1]; Wrists, images 45-75 min after injection", "result": 1.04},
      {"measurement": "Cutoff Value (MARTAD 2 S.D. above the joint specific mean)", "setting": "[1]; Wrists", "result": 1.24},
      {"measurement": "Sensitivity of MARTAD values to image acquisition time", "setting": "[2]; image acquisition times 5-10 minutes", "result": "not sensitive"},
      {"measurement": "Effect of mass dose on image quality", "setting": "[2]; mass dose of tilmanocept 125 μg to 400 μg IV, separate studies (not shown)", "result": "did not impact image quality"},
      {"measurement": "MARTAD values of repeat images versus first images", "setting": "[2]; repeat images 180-240 minutes after injection vs 45-75 minutes, same subjects", "result": "statistically similar"}
    ]}
  ]
}
